Source: patent US6858428B2, “Human and animal cell culture medium containing antithrombin III for suppressing cell death” (Agency of Industrial Science and Technology, priority 1999, dated 2005)

Tested on: hepatoma cell line HepG2
Test: Survival of hepatoma cell line HepG2 in serum-free culture (viable cell count after 3 days)
Format: cell-based
Settings: for Survival rate: HepG2, DMEM without fetal bovine serum; for Effect in controlling cell death (in words): HepG2, serum-free medium, concentration not given
Description: Two mL cell suspension of hepatoma cell line HepG2 dispersed in trypsin (5×10^5 cells) were inoculated on six multi-well plates and pre-culture by using Dulbecco's modified Eagle medium (DMEM) containing 5% fetal bovine serum, 1.6 g/L sodium hydrogencarbonate, 0.584 g/L L-glutamine, and 0.08 g/L kanamycin sulfate at 37° C. in a 5% CO2 gas phase. […] The viable cell count was assayed after 3 days of culture.
(§1) The hepatoma cell line HepG2 was pre-cultured in the same manner as in Example 1. After 1 day, the broth was recovered, the cell surfaces were washed with serum-free medium, and the culture was continued for another 3 days with the addition of medium containing 5%, 0% fetal bovine serum, or 2 mL of fresh medium comprising antithrombin III added in concentrations ranging from 1 to 25 μg/mL to media containing no fetal bovine serum (0%). The viable cell count was assayed after 3 days of culture.
as §1, with “III or any of-various synthetic protease inhibitors given in Table 4” for “III”, “added” for “added in concentrations ranging from 1 to 25 μg/mL”

Compound: NCCc1ccc(S(=O)(=O)F)cc1 [AEBSF, reference compound]
- Survival rate (additive 50 μg/ml): 92.2%
- Effect in controlling cell death (in words): effective in controlling cell death

Compound: N=C(N)c1ccc(CS(=O)(=O)F)cc1 [APMSF, reference compound]
- Survival rate (additive 40 μg/ml): 74.0%

Compound: CC(=O)N[C@@H](CC(C)C)C(=O)N[C@@H](CC(C)C)C(=O)N[C@H](C=O)CCCNC(=N)N [Leupeptin, reference compound]
- Survival rate (additive 0.5 μg/ml): 65.5%

Compound: Cc1ccc(S(=O)(=O)N[C@@H](CCCCN)C(=O)CCl)cc1 [TLCK, reference compound]
- Survival rate (additive 50 μg/ml): 89.3%
- Effect in controlling cell death (in words): effective in controlling cell death

Compound: IGF-1: growth factor reported as survival factor
- Survival rate (additive 50 ng/ml): 45.3%

Compound: Insulin: hormone reported as survival factor
- Survival rate (additive 0.1 μM): 53.0%

Compound: Orosomucoide: typical serum protein used for comparison
- Survival rate (additive 48.8 μg/ml): 61.5%
- Effect in controlling cell death (in words): virtually no effect in controlling cell death

Compound: PDGF-AA: growth factor reported as survival factor
- Survival rate (additive 50 ng/ml): 54.0%

Compound: Transferrin: typical serum protein used for comparison
- Survival rate (additive 150 μg/ml): 62.8%
- Effect in controlling cell death (in words): virtually no effect in controlling cell death

Compound: aFGF: growth factor reported as survival factor
- Survival rate (additive 10 ng/ml): 59.6%

Compound: bFGF: growth factor reported as survival factor
- Survival rate (additive 10 ng/ml): 55.2%

Compound: α 1-antitrypsin: typical serum protein used for comparison
- Survival rate (additive 150 μg/ml): 72.7%
- Effect in controlling cell death (in words): virtually no effect in controlling cell death
